Read-outs that look alike come from different tables or passages of the source. Where a SMILES comes first, the peptide text is derived from it. [ ]: non-standard residue; d: D form. Dap = NC[C@H](N)C(=O)O; Aib = CC(C)(N)C(=O)O
Key:
S. maltophilia DSM 50170 = experiment: microbe, parasite or virus in culture; assay type: cell-based, Stenotrophomonas maltophilia
Experimental: (§1) Candida albicans ATCC 90028, Achromobacter xylosoxidans DSM 2402, and Stenotrophomonas maltophilia DSM 50170 were used in this study. Microbial strains were grown in Tryptone Soya Broth (TSB, VWR chemicals, Leuven, Belgium), supplemented with 0.1% glucose only for C. albicans at 37 °C overnight. Then, cells were harvested by centrifugation at 5000 rpm, 4 °C for 10 min, followed by washing in Phosphate Buffered Saline (PBS, Oxoid Ltd., Basingstoke, UK) three times. Standardized 1 × 10^6 CFU mL^-^1 inoculum was used in the next experiments. The minimum inhibitory concentrations (MIC) of WMR-4 against C. albicans, A. xylosoxidans, and S. maltophilia were determined using a broth microdilution method accord-ing to CLSI M27-A3 and […]-A9 guidelines. Concentrations of WMR-4 from 0.5 to 50 μM were added to wells of a 96-well microplate containing 1 × 10^6 CFU mL^-1 cells. Fluconazole at a concentration range from 1 to 50 μM and meropenem at a concentration range from 10 to 200 μM were used as control. The plate was incubated at 37 °C for 24/48 h due to poor growth after 24 h for the two bacterial species. Next, the absorbance at 590 nm was read using a microplate reader (Synergy H4; BioTek Instruments, Agilent Technologies, Winooski, VT, USA). MIC value was defined as a lowest concentration of WMR and analogues able to inhibit total microbial growth.

A. xylosoxidans DSM 2402 = experiment: microbe, parasite or virus in culture; assay type: cell-based, Achromobacter xylosoxidans
Experimental: as §1

C. albicans ATCC 90028 = assay type: cell-based, Candida albicans; details: ATCC 90028, 48 h
Experimental: as §1

in vitro = in vitro ADME, bovine; details: serum
Experimental: The proteolytic stability of WMR and WMR-4 were determined in bovine serum acquired from ThermoFisher Scientific (Milan, Italy). Peptides were dissolved in sterile water to prepare stock solutions, then incubated with 50% of bovine serum to obtain a final concentration of 200 μM [69]. The mixture peptide/serum was incubated at 37 ± 1 °C for different times (0.25, 0.50, 1, 2, 3, 4, 5, and 16 h). At each pre-established time, an aliquot of reaction was taken, and acetonitrile was added to favor the precipitation of serum proteins. Then, the solution was cooled at 4 °C and centrifuged for 15 min at 13,000× g rpm. The supernatant was analyzed by HPLC in a Phenomenex Jupiter 4 μm Proteo 90 Å 250 × 21.20 mm column with a linear gradient of solvent B (0.1% TFA in acetonitrile) in solvent A (0.1% TFA in water) from 5 to 70% in 20 min with UV detection at 210 nm and a flow rate of 1 mL/min.

SMILES	MIC (S. maltophilia DSM 50170; DSM 50170, 48 h) [µM]	MIC (A. xylosoxidans DSM 2402; DSM 2402, 48 h) [µM]	also measured
C[C@@H](O)[C@H]1C(=O)N2C(C(=O)O)=C(S[C@@H]3CN[C@H](C(=O)N(C)C)C3)[C@H](C)[C@H]12 [MEM, meropenem, reference compound]	–	–	MIC (S. maltophilia DSM 50170; Stenotrophomonas maltophilia, DSM50170, S. maltophilia DSM 50170, control drug, value outside parentheses, read-out: MIC): 130 µg/mL; MIC (A. xylosoxidans DSM 2402; Achromobacter xylosoxidans, DSM2402, A. xylosoxidans DSM 2402, control drug, value outside parentheses, read-out: MIC): 65 µg/mL
CC[C@H](C)[C@H](NC(=O)CNC(=O)[C@@H](N)Cc1c[nH]c2ccccc12)C(=O)N[C@@H](CCCNC(=N)N)C(=O)N[C@@H](CCCNC(=N)N)C(=O)N[C@H](C(=O)N[C@@H](CC(C)C)C(=O)N[C@@H](CCCCN)C(=O)N[C@@H](Cc1ccc(O)cc1)C(=O)NCC(=O)N[C@@H](CCCCN)C(=O)N[C@@H](CCCNC(=N)N)C(=O)N[C@@H](CO)C(=O)N[C@H](CCCCN)C(N)=O)[C@@H](C)CC [WMR-1] (H-WGIRRILKYGKRS[dK]-NH2)	> 50	> 50	–
CC[C@H](C)[C@H](NC(=O)CNC(=O)[C@@H](N)Cc1c[nH]c2ccccc12)C(=O)N[C@@H](CCCNC(=N)N)C(=O)N[C@@H](CCCNC(=N)N)C(=O)N[C@H](C(=O)N[C@@H](CC(C)C)C(=O)N[C@@H](CCCCN)C(=O)N[C@@H](Cc1ccc(O)cc1)C(=O)NCC(=O)N[C@@H](CCCCN)C(=O)N[C@@H](CCCNC(=N)N)C(=O)N[C@H](CO)C(=O)N[C@@H](CCCCN)C(N)=O)[C@@H](C)CC [WMR-2] (H-WGIRRILKYGKR[dS]K-NH2)	> 50	> 50	–
CC[C@H](C)[C@H](NC(=O)[C@H](CCCNC(=N)N)NC(=O)[C@H](CCCNC(=N)N)NC(=O)[C@@H](NC(=O)C(C)(C)NC(=O)[C@@H](N)Cc1c[nH]c2ccccc12)[C@@H](C)CC)C(=O)N[C@@H](CC(C)C)C(=O)N[C@@H](CCCCN)C(=O)N[C@@H](Cc1ccc(O)cc1)C(=O)NCC(=O)N[C@@H](CCCCN)C(=O)N[C@@H](CCCNC(=N)N)C(=O)N[C@@H](CO)C(=O)N[C@@H](CCCCN)C(N)=O [WMR-3] (H-W[Aib]IRRILKYGKRSK-NH2)	> 50	> 50	–
CC[C@H](C)[C@H](NC(=O)[C@H](CCCNC(=N)N)NC(=O)[C@H](CCCNC(=N)N)NC(=O)[C@@H](NC(=O)C(C)(C)NC(=O)[C@@H](N)Cc1c[nH]c2ccccc12)[C@@H](C)CC)C(=O)N[C@@H](CC(C)C)C(=O)N[C@@H](CCCCN)C(=O)N[C@@H](Cc1ccc(O)cc1)C(=O)NCC(=O)N[C@@H](CCCCN)C(=O)N[C@@H](CCCNC(=N)N)C(=O)N[C@H](CO)C(=O)N[C@H](CCCCN)C(N)=O [WMR-4] (H-W[Aib]IRRILKYGKR[dS][dK]-NH2)	25	25	MIC (C. albicans ATCC 90028): 50 µM; remaining at 5 h, 200 μM (in vitro): 70%; remaining at 16 h, 200 μM (in vitro): ~30%
CC[C@H](C)[C@H](NC(=O)CNC(=O)[C@@H](N)Cc1c[nH]c2ccccc12)C(=O)N[C@@H](CCCNC(=N)N)C(=O)N[C@@H](CCCNC(=N)N)C(=O)N[C@H](C(=O)N[C@@H](CC(C)C)C(=O)N[C@@H](CCCCN)C(=O)N[C@@H](Cc1ccc(O)cc1)C(=O)NCC(=O)N[C@@H](CCCCN)C(=O)N[C@@H](CCCNC(=N)N)C(=O)N[C@@H](CO)C(=O)N[C@@H](CN)C(N)=O)[C@@H](C)CC [WMR-5] (H-WGIRRILKYGKRS[Dap]-NH2)	25	25	–
CC[C@H](C)[C@H](NC(=O)CNC(=O)[C@@H](N)Cc1c[nH]c2ccccc12)C(=O)N[C@@H](CCCNC(=N)N)C(=O)N[C@@H](CCCNC(=N)N)C(=O)N[C@H](C(=O)N[C@@H](CC(C)C)C(=O)N[C@@H](CCCCN)C(=O)N[C@@H](Cc1ccc(O)cc1)C(=O)NCC(=O)N[C@@H](CCCCN)C(=O)N[C@@H](CCCNC(=N)N)C(=O)N[C@@H](CO)C(=O)N[C@@H](CCCCN)C(N)=O)[C@@H](C)CC [WMR] (H-WGIRRILKYGKRSK-NH2)	50	50	remaining at 0.25 h, 200 μM (in vitro): 75%; remaining at 0.5 h, 200 μM (in vitro): 75%; remaining at 1 h, 200 μM (in vitro): 68%; remaining at 2 h, 200 μM (in vitro): 53%; remaining at 3 h, 200 μM (in vitro): 36%; remaining at 5 h, 200 μM (in vitro): 20%

From PMC9964602, “Myxinidin-Derived Peptide against Biofilms Caused by Cystic Fibrosis Emerging Pathogens” (International Journal of Molecular Sciences, 2023)
